Results taken from patent US7799791B2, “Tetrahydrofuro(3,2-B) pyrrol-3-one derivatives as inhibitors of cysteine proteinases” (Amura Therapeutics Limited, priority 2007, dated 2010).
Read-outs that look alike come from different tables or passages of the source.

Key:
[1] = molecular target: T1, Human recombinant cathepsin K (Homo sapiens, UniProt P43235); test: In vitro cathepsin Ki inhibition measurements; format: biochemical
T1 construct: purchased B. Turk, Josef, Stefan Institute, Ljubljana, Slovenia
T1 sequence (P43235 115-329): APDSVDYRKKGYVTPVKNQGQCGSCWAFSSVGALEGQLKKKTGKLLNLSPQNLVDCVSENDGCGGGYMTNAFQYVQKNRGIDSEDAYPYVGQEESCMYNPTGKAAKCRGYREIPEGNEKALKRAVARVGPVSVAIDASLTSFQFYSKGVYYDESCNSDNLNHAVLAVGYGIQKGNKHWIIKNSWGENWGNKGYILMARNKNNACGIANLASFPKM
Description: Stock solutions of substrate or inhibitor were made up to 10 mM in 100% dimethylsulfoxide (DMSO) (Rathburns, Glasgow, U.K.) and diluted as appropriately required. In all cases the DMSO concentration in the assays was maintained at less than 1% (vol./vol.). The equilibrium inhibition constants (Ki^ss) for each compound were measured under steady-state conditions monitoring enzyme activity as a function of inhibitor concentration. The values were calculated on the assumption of pure competitive behaviour (Cornish-Bowden, A. Fundamentals of enzyme kinetics Portland Press; 1995, 93-128.). Human recombinant cathepsin K (0.25 nM final; B. Turk, Josef, Stefan Institute, Ljubljana, Slovenia), was routinely assayed in 100 mM sodium acetate; pH 5.5 containing 1 mM EDTA, 10 mM L-cysteine and 1.8 μM Z-Leu-Arg-AMC ([S]=KM).
The apparent inhibition constant (Ki) for each compound was determined on the basis that inhibition was reversible and occurred by a pure-competitive mechanism. The Ki values were calculated, from the dependence of enzyme activity as a function of inhibitor concentration, by direct regression analysis (Prism v 3.02) using Equation 2 (Comish-Bowden, A., 1995.).
In situations where the apparent dissociation constant (Ki^app) approached the enzyme concentrations, the Ki^app values were calculated using a quadratic solution in the form described by Equation 3 (Morrison, J. F. Trends Biochem. Sci., 7, 102-105, 1982; Morrison, J. F. Biochim. Biophys. Acta. 185, 269-286, 1969; Stone, S. R. and Hofsteenge, J. Biochemistry, 25, 4622-4628, 1986).
Curves were fitted by non-linear regression analysis (Prism) using a fixed value for the enzyme concentration. Equation 4 was used to account for the substrate kinetics, where ‘Ki’ is the inhibition constant, ‘[So]’ is the initial substrate concentration and ‘KM^app’ is the apparent macroscopic binding (Michaelis) constant for the substrate (Morrison, 1982).

[2] = Plasma incubations (human plasma stability); format: in vitro ADME; conditions: 37° C., 25 μM, percent remaining at 1 hour
Description: Human and rat plasma were purchased from Innovative Research Inc. (Southfield. Mich., USA). […] Aliquots were removed at 2 and 60 minutes and quenched with an equal volume of cold acetonitrile. After mixing vigorously, the precipitated protein matter was removed by filtration (Multiscreen Solvinert filter plates, Millipore, Bedford, Mass., USA) and the filtrate analysed by reverse phase HPLC with mass spectrometric detection, using single ion monitoring of the [M+H]^+ species. Metabolic turnover was determined by comparison of peak areas from the ion chromatograms of the parent compound at 2 and 60 minutes and expressed as percent remaining at 1 hour.

[3] = prior art WO-A-02057270 examples, Table 2, read-out: Ki (nM) vs Human Cathepsin K
[4] = Table 1, read-out: In vitro Ki (nM) vs Cath K

Compound	Ki [1, 3]	Ki [1, 4]	Human Plasma Stability % rem. @ 1 h [2]
N-((S)-1-cyclopentyl-2-((3aS,6R,6aS)-6-methoxy-3-oxodihydro-2H-furo[3,2-b]pyrrol-4(5H,6H,6aH)-yl)-2-oxoethyl)-4-(2-(4-methylpiperazin-1-yl)thiazol-4-yl)benzamide [Example 2]	> 50000 nM	–	–
CO[C@@H]1CN(C(=O)[C@@H](NC(=O)c2ccc(-c3csc(N4CCN(C)CC4)n3)cc2)C2CCCC2)[C@@H]2C(=O)CO[C@@H]21 [Example 2, N-((S)-1-cyclopentyl-2-((3aS,6R,6aS)-6-methoxy-3-oxodihydro-2H-furo[3,2-b]pyrrol-4(5H,6H,6aH)-yl)-2-oxoethyl)-4-(2-(4-methylpiperazin-1-yl)thiazol-4-yl)benzamide]	–	1.9 nM	98.2%
CC(C)C[C@H](NC(=O)c1ccc(-c2csc(N3CCN(C)CC3)n2)cc1)C(=O)N1CC[C@H]2OCC(=O)[C@H]21 [Example 3, N-((S)-4-methyl-1-oxo-1-((3aS,6aR)-3-oxodihydro-2H-furo[3,2-b]pyrrol-4(5H,6H,6aH)-yl)pentan-2-yl)-4-(2-(4-methylpiperazin-1-yl)thiazol-4-yl)benzamide]	–	1.7 nM	92.6%
CO[C@H]1CN(C(=O)[C@@H](NC(=O)c2ccc(-c3csc(N4CCN(C)CC4)n3)cc2)C2CCCC2)[C@@H]2C(=O)CO[C@H]12 [Example 1, N-((S)-1-cyclopentyl-2-((3aS,6S,6aS)-6-methoxy-3-oxodihydro-2H-furo[3,2-b]pyrrol-4(5H,6H,6aH)-yl)-2-oxoethyl)-4-(2-(4-methylpiperazin-1-yl)thiazol-4-yl)benzamide]	–	1.4 nM	100%
N-((S)-4-methyl-1-oxo-1-((3aS,6aR)-3-oxodihydro-2H-furo[3,2-b]pyrrol-4(5H,6H,6aH)-yl)pentan-2-yl)-4-(2-(4-methylpiperazin-1-yl)thiazol-4-yl)benzamide [Example 3]	> 4000 nM	–	–

Continued, values first:

Ki [1, 3]	Ki [1, 4]	Human Plasma Stability % rem. @ 1 h [2]	Compound
–	1.7 nM	91.9%	CN1CCN(c2nc(-c3ccc(C(=O)N[C@@H](CC(C)(C)C)C(=O)N4CC[C@H]5OCC(=O)[C@H]54)cc3)cs2)CC1 [Example 4, N-((S)-4,4-dimethyl-1-oxo-1-((3aS,6aR)-3-oxodihydro-2H-furo[3,2-b]pyrrol-4(5H,6H,6aH)-yl)pentan-2-yl)-4-(2-(4-methylpiperazin-1-yl)thiazol-4-yl)benzamide]
–	1.3 nM	82.5%	CN1CCN(c2nc(-c3ccc(C(=O)N[C@H](C(=O)N4CC[C@H]5OCC(=O)[C@H]54)C4CCCC4)cc3)cs2)CC1 [Example 5, N-((S)-1-cyclopentyl-2-oxo-2-((3aS,6aR)-3-oxodihydro-2H-furo[3,2-b]pyrrol-4(5H,6H,6aH)-yl)-2-oxoethyl)-4-(2-(4-methylpiperazin-1-yl)thiazol-4-yl)benzamide]
–	87.4 nM	75%	CC(C)C[C@H](NC(=O)c1ccc(C(C)(C)C)cc1)C(=O)N1CC[C@H]2OCC(=O)[C@H]21 [Prior art compound 23, reference compound]
